Assay results: patent publication US8884007B2, “Hexenone compounds and medical use thereof” (Institute of Pharmacology and Toxicology Medical Sciences …, priority 2010, dated 2014)

Tests used:
[1] = tested on: TG-induced cardiomyocytes apoptosis; test: Protection against TG-induced cardiomyocytes apoptosis (MTT); assay type: cell-based, Wistar sucking mice
Method: The isolation and culture of cardiomyocytes were performed by referring to the differential adhesion method (Kreider, A. Messing, H. Doan, S. U. Kim, R. P. Lisak and D. E. Pleasure, Enrichment of Schwann cell cultures from neonatal rat sciatic nerve by differential adhesion, Brain Res 2 (1981), pp. 433-444). Wistar sucking mice newborn within 24 h were used, sterilized at skin of ventrum with iodine tincture and ethanol, subjected to thoracotomy using scissors at subxiphoid median line with a deviation to left, heart was taken out after slant thoracotomy and placed in PBS precooled with ice; the heart was softly blown and beaten with 0.01M PBS to remove blood cells and other tissues, then cut into pieces with 0.5 mm^3 size, washed with 0.01M PBS repeatedly for 2-3 times; the pieces were placed in conical flask, added with 4 ml of 0.125% pancretin, 1 ml of 0.1% collagenase II (final concentrations separately being 0.1% and 0.02%), shaken in 37° C. water bath for 10 min, the supernatant was discarded; then 4 ml of 0.125% pancretin and 1 ml of 0.1% collagenase II again, shaken in 37° C. water bath for digestion for 10 min, the supernatant was sucked and transferred to a centrifuge tube, and the supernatant was added with DMEM containing 10% FBS to terminate digestion; the step of shaking and digestion in water bath was repeated for 3-4 times, until the tissue pieces were completely digested; the collected cell suspension was centrifuged under 1000 rpm for 10 min, the supernatant was removed, then a culture medium was added for resuspension; the resuspended cells were inoculated in a cell culture flask, placed in CO2 incubator at 37° C. for incubation for 1.5 h, then the culture medium was sucked out, countered under microscope, then DMEM culture medium containing 10% FBS was used to adjust cell density, inoculated in an amount of 1×10^4 to a 96-well plate, placed in 5% CO2 incubator at 37° C. for 24 h, then half medium was replaced, a culture medium containing 0.1% Brdu was supplementally added; then the medium was replaced once per 48 h, and primary cardiomyocytes were obtained after 4 days of cultivation.
The isolated primary culture of cardiomyocytes was inoculated in an amount of 10^4 cells per well to a 96-well plate, and the volume of each well was 100 ul (marginal wells were filled with sterile PBS). […] The optical density (OD) value of each well was measured at wavelength of 550 nm by enzyme-linked immunoassay instrument, and each well was repeatedly measured for 5 times and the results were recorded. […]

primary cardiomyocytes = test: Measurement of cell inhibition rate (MTT) on normal primary cardiomyocytes; assay type: cell-based, Wistar sucking mice
Method: The isolation and culture of cardiomyocytes were performed by referring to the differential adhesion method (Kreider, A. Messing, H. Doan, S. U. Kim, R. P. Lisak and D. E. Pleasure, Enrichment of Schwann cell cultures from neonatal rat sciatic nerve by differential adhesion, Brain Res 2 (1981), pp. 433-444). […]
The isolated primary culture of cardiomyocytes was inoculated in an amount of 10^4 cells per well to a 96-well plate, and the volume of each well was 100 ul (marginal wells were filled with sterile PBS). […] The optical density (OD) value of each well was measured at wavelength of 550 nm by enzyme-linked immunoassay instrument, and each well was repeatedly measured for 5 times and the results were recorded.

## C/C=C(/C)C(=O)O[C@H]1C(C)=C2[C@H]([C@@H]1OC(=O)CCCCCCC)[C@@](C)(OC(C)=O)C[C@H](OC(=O)CCC)[C@@]1(O)[C@H]2OC(=O)[C@@]1(C)O [TG, thapsigargin, reference compound]
[1]; TG intervening group (0.4 uM), TG alone
  Survival rate of cardiomyocytes (%): 59 ± 1.1%

## O=C(/C=C/c1ccccc1)CC(NC(=S)N1CCOCC1)C(Cl)(Cl)Cl (stereo not shown) [Example 1, (1E)-1-phenyl-5-(1-morpholinylthiocarboxamido)-6,6,6-trichloro-1-ene-3-hexanone]
Primary cardiomyocytes; Cardiomyocyte, 100 μM group, MTT, 48 h, normal primary cardiomyocytes, read-out: Inhibitive rate of cardiomyocytes (%)
  inhibition at 100 µM: 2.91 ± 1.88%
Primary cardiomyocytes; Cardiomyocyte, 300 μM group, MTT, 48 h, normal primary cardiomyocytes, read-out: Inhibitive rate of cardiomyocytes (%)
  inhibition at 300 µM: 0.76 ± 0.42%
Primary cardiomyocytes; concentration within 300 μM
  effect on survival rate of normal cardiomyocyte: no effect
[1]; TG (0.4 uM) + compound 0.3 μM group, pretreatment 30 min before inducing apoptosis
  Survival rate of cardiomyocytes (%): 76.3 ± 7.6%
[1]; TG (0.4 uM) + compound 1 μM group, pretreatment 30 min before inducing apoptosis
  Survival rate of cardiomyocytes (%): 83.3 ± 7.1%
[1]; TG (0.4 uM) + compound 10 μM group, pretreatment 30 min before inducing apoptosis
  Survival rate of cardiomyocytes (%): 92.2 ± 5.6%
